Results: patent US20190330140A1, “Compound for Use in Enzymatic Reaction and Mass Spectrometry Method” (HITACHI HIGH-TECHNOLOGIES CORPORATION, priority 2016, published 2019)

Test system: galactosidase
Experiment: enzymatic reaction with galactosidase, product measured
Assay type: biochemical
Settings: 0.5 ng/ml galactosidase, 1 hour
Procedure: When a solution of 20 ng/ml of HVG and 0.5 ng/ml of galactosidase in a 10 mmol/L phosphate buffer (pH 7.3) containing 5% (v/v) of methanol and 1 mmol of magnesium chloride was prepared and was reacted at 37° C. for 1 hour, 0.532 ng/ml of HV was then produced. […] It was found from this example that HVG has the same level of enzymatic susceptibility as p-nitrophenylgalactoside which is known as a good substrate for galactosidases.

SMILES	HV produced from substrate (20 ng/ml HVG, 10 mmol/L phosphate buffer pH 7.3, 5% methanol, MgCl2, 37° C.) [ng/mL]	p-nitrophenol produced from substrate (substrate in place of HVG, phosphate buffer pH 7.3, 37° C.) [ng/mL]
COc1ccc(CCN(C)CCCC(C(=O)Nc2ccc(O[C@@H]3OC(CO)[C@H](O)[C@@H](O)C3O)cc2)(c2ccc(OC)c(OC)c2)C(C)C)cc1OC (some centres unmarked) [HVG]	0.532	
O=[N+]([O-])c1ccc(O[C@@H]2O[C@H](CO)[C@H](O)[C@H](O)[C@H]2O)cc1 [p-Nitrophenyl galactoside]		0.532
